Molecules are shown by their SMILES.

This passage reports inhibition and IC50 results from patent US9682978B2, “2,6,7 substituted purines as HDM2 inhibitors” (Merck Sharp & Dohme Corp., priority 2013, dated 2017).

For the first assay, the target named is T1, HDM2 (Homo sapiens, UniProt Q00987).
T1 construct: Thioredoxin (N); made in house; host or cells: E. coli BL21(DE3)Rosetta (pET32a)
T1 sequence (Q00987 17-125): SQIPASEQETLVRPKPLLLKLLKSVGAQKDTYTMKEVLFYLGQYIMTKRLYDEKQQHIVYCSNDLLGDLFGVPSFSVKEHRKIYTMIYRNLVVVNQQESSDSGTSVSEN
In words: HDM2 FRET assay (inhibition of p53 peptide binding to HDM2). Conditions: Table 1, printed in the FRET IC50 column; at 1000 nM compound. The source says:
Methods: An HDM2 FRET assay was developed to assess the compounds' inhibitory activity towards binding of p53 protein. A truncated version of HDM2 with residues 17 to 125 (containing p53 binding surface, Science (1994) 265, 346-355), with N-terminal His and Thioredoxin tag was generated in pET32a expression vector and expressed in E. coli strain BL21(DE3)Rosetta. Protein was purified using Ni-affinity chromatography, followed by size exclusion chromatography using Superdex 75 26/60 column. To assess inhibition of p53 binding to HDM2, a FITC labeled 8-mer peptide (sequence: Ac-Phe-Arg-Dpr-Ac6c-(6-Br)Trp-Glu-Glu-Leu-NH2; Anal Biochem. 2004 Aug. 1; 331(1):138-46) with strong affinity towards p53 binding pocket of HDM2 was used. The HDM2 assay buffer contained 1× Phosphate Buffered Saline (Invitrogen, Cat#14190), 0.01% BSA (Jackson ImmunoResearch, Cat#001-000-162), 0.01% Tween-20. In the 1× assay buffer recombinant HDM2 protein, peptide and Lumi4-Tb Cryptate-conjugate mouse anti-6×HIS antibody (cisbio, Cat#Tb61HISTLB) were added and transferred to ProxiPlate PLUS (PerkinElmer, Cat#6008269), containing compounds so that final DMSO concentration is 0.1%. Final concentrations of reagents in the assay wells are 0.5 nM HDM2, 0.25 nM anti HIS (Tb label) antibody and 3 nM peptide. After two hour incubation at room temperature in a humidified chamber plates were read on EnVision plate reader with the following settings: excitation: UV, […], two emission filters: 520 nm and 495 nm respectively. Ratio of em520/em495 was used to calculate % inhibition and to obtain IC50 with 4-parameter logistic equation.
IC50 DETERMINATIONS: Dose-response curves were plotted from the inhibition data, from 10 point serial dilutions of inhibitory compounds. Concentration of compound was plotted against em520/Cem495 ratio signal. To generate IC50 values, the dose-response curves were fitted to a standard sigmoidal curve and IC50 values were derived by nonlinear regression analysis. IC50 values in the above table are rounded to the nearest integer.
For orientation: inhibition means the share of the control response that was lost under treatment. A high value points to a strong effect. The compound `CC1(C)CCCN(c2nc(-c3noc(=O)[nH]3)nc3ncn(C[C@H]4CC[C@H](C)CC4)c23)C1` [Example 1.12, 3-{6-(3,3-dimethylpiperidin-1-yl)-7-[(trans-4-methylcyclohexyl)methyl]-7H-purin-2-yl}-1,2,4-oxadiazol-5(4H)-one] showed an inhibition at 1 µM of 43%.

The same assay, now with this note: Table 1; truncated HDM2 residues 17 to 125, 0.5 nM HDM2, 3 nM FITC labeled 8-mer peptide, two hour incubation.
In general, IC50 refers to the concentration at which inhibition is half-maximal. `C[C@H]1CC[C@H](Cn2cnc3nc(-c4noc(=O)[nH]4)nc(N4CCCC(F)(F)C4)c32)CC1` [Example 1.6, 3-{6-(3,3-difluoropiperidin-1-yl)-7-[(trans-4-methylcyclohexyl)methyl]-7H-purin-2-yl}-1,2,4-oxadiazol-5(4H)-one] showed an IC50 of 820 nM. Same read-out and setting: under `C[C@@H](Nc1nc(-c2noc(=O)[nH]2)nc2ncn(Cc3ccc(C(F)(F)F)cc3)c12)C1CCC1` [Example 1.14, 3-(6-{[(1R)-1-cyclobutylethyl]amino}-7-[4-(trifluoromethyl)benzyl]-7H-purin-2-yl)-1,2,4-oxadiazol-5(4H)-one] stands 21.6 nM.

For `C[C@@H](Nc1nc(-c2n[nH]c(=O)n2C)nc2ncn(C[C@H]3CC[C@H](C)CC3)c12)C1CCC1` [Example 1.16, 5-(6-{[(1R)-1-cyclobutylethyl]amino}-7-[(trans-4-methylcyclohexyl)methyl]-7H-purin-2-yl)-4-methyl-2,4-dihydro-3H-1,2,4-triazol-3-one], the concentration for half-maximal inhibition (IC50) came out at 241 nM. In turn, `C[C@@H](Nc1nc(-c2noc(=O)[nH]2)nc2ncn(C[C@H]3CC[C@H](C)CC3)c12)C1CCC1` [Example 1.7, 3-(6-{[(1R)-1-cyclobutylethyl]amino}-7-[(trans-4-methylcyclohexyl)methyl]-7H-purin-2-yl)-1,2,4-oxadiazol-5(4H)-one] showed a half-maximal inhibitory concentration (IC50) of 51.3 nM. Still for that read-out and setting: for `C[C@@H](Nc1nc(-c2n[nH]c(=O)o2)nc2ncn(C[C@H]3CC[C@H](C)CC3)c12)C1CCC1` [Example 1.15, 5-(6-{[(1R)-1-cyclobutylethyl]amino}-7-[(trans-4-methylcyclohexyl)methyl]-7H-purin-2-yl)-1,3,4-oxadiazol-2(3H)-one] the value was 52.5 nM.

Still in this assay, the particulars now being: Table 2; truncated HDM2 residues 17 to 125, 0.5 nM HDM2, 3 nM FITC labeled 8-mer peptide, two hour incubation.
The compound `C[C@H]1CC[C@H](Cn2cnc3nc(-c4noc(=O)[nH]4)nc(-c4cccc(Br)c4)c32)CC1` [Example 2.8, 3-{6-(3-bromophenyl)-7-[(trans-4-methylcyclohexyl)methyl]-7H-purin-2-yl}-1,2,4-oxadiazol-5(4H)-one] displayed an IC50 of 157 nM. On the same count and under the same terms, for `C[C@H]1CC[C@H](Cn2cnc3nc(-c4noc(=O)[nH]4)nc(-c4cc(Cl)ccn4)c32)CC1` [Example 2.3, 3-{6-(4-chloropyridin-2-yl)-7-[(trans-4-methylcyclohexyl)methyl]-7H-purin-2-yl}-1,2,4-oxadiazol-5(4H)-one] the value was 251 nM; for `COc1cc(Cl)cc(-c2nc(-c3noc(=O)[nH]3)nc3ncn(C[C@H]4CC[C@H](C)CC4)c23)c1` [Example 2.6, 3-{6-(3-chloro-5-methoxyphenyl)-7-[(trans-4-methylcyclohexyl)methyl]-7H-purin-2-yl}-1,2,4-oxadiazol-5(4H)-one], 312 nM; for `C[C@H]1CC[C@H](Cn2cnc3nc(-c4noc(=O)[nH]4)nc(-c4cccc(C#N)c4)c32)CC1` [Example 2.9, 3-{7-[(trans-4-methylcyclohexyl)methyl]-2-(5-oxo-4,5-dihydro-1,2,4-oxadiazol-3-yl)-7H-purin-6-yl}benzonitrile], 518 nM. `C[C@H]1CC[C@H](Cn2cnc3nc(-c4noc(=O)[nH]4)nc(-c4cc(Cl)cc(C#N)c4)c32)CC1` [Example 2.4, 3-chloro-5-{7-[(trans-4-methylcyclohexyl)methyl]-2-(5-oxo-4,5-dihydro-1,2,4-oxadiazol-3-yl)-7H-purin-6-yl}benzonitrile] came in with an IC50 of 413 nM. `CS(=O)(=O)c1cc(Cl)cc(-c2nc(-c3noc(=O)[nH]3)nc3ncn(C[C@H]4CC[C@H](C)CC4)c23)c1` [Example 2.17, 3-{6-[3-chloro-5-(methylsulfonyl)phenyl]-7-[(trans-4-methylcyclohexyl)methyl]-7H-purin-2-yl}-1,2,4-oxadiazol-5(4H)-one] displayed an IC50 of 250 nM. Still for that read-out and setting: under `COCCOc1cc(Cl)cc(-c2nc(-c3noc(=O)[nH]3)nc3ncn(C[C@H]4CC[C@H](C)CC4)c23)c1` [Example 2.22, 3-{6-[3-chloro-5-(2-methoxyethoxyl)phenyl]-7-[(trans-4-methylcyclohexyl)methyl]-7H-purin-2-yl}-1,2,4-oxadiazol-5(4H)-one] stands 68.5 nM.

Staying with this assay, now noted: Table 3; truncated HDM2 residues 17 to 125, 0.5 nM HDM2, 3 nM FITC labeled 8-mer peptide, two hour incubation.
The compound `O=c1[nH]c(-c2nc(-c3cccc(Cl)c3)c3c(ncn3C[C@H]3CC[C@H](C(F)(F)F)CC3)n2)no1` [Example 3.2, 3-[6-(3-chlorophenyl)-7-{[trans-4-(trifluoromethyl)cyclohexyl]methyl}-7H-purin-2-yl]-1,2,4-oxadiazol-5(4H)-one] registered an IC50 of 437 nM. Consider `C[C@@H]1CC[C@@H](Cn2cnc3nc(-c4noc(=O)[nH]4)nc(-c4cccc(Cl)c4)c32)CC1(F)F` (single isomer, unassigned) [Example 3.15, 3-[6-(3-chlorophenyl)-7-{[(trans)-3,3-difluoro-4-methylcyclohexyl]methyl}-7H-purin-2-yl]-1,2,4-oxadiazol-5(4H)-one], for which the 50% inhibitory concentration (IC50) was determined as 430 nM. Same read-out and setting: for `CC([C@H]1CC[C@H](C)CC1)n1cnc2nc(-c3noc(=O)[nH]3)nc(N[C@H](C)C3CCC3)c21` (single isomer, unassigned) [Example 3.17] the value was 421 nM; for `CC1=C(F)CC(Cn2cnc3nc(-c4noc(=O)[nH]4)nc(N[C@H](C)C4CCC4)c32)CC1` (mixture of isomers) [Example 3.6, 3-(6-{[(1R)-1-cyclobutylethyl]amino}-7-[(3-fluoro-4-methylcyclohex-3-en-1-yl)methyl]-7H-purin-2-yl)-1,2,4-oxadiazol-5(4H)-one], 149 nM. On the same count and under the same terms, under `C[C@@H]1CC[C@@H](Cn2cnc3nc(-c4noc(=O)[nH]4)nc(-c4cccc(Cl)c4)c32)CC1(F)F` (single isomer, unassigned) [Example 3.16, 3-[6-(3-chlorophenyl)-7-{[(trans)-3,3-difluoro-4-methylcyclohexyl]methyl}-7H-purin-2-yl]-1,2,4-oxadiazol-5(4H)-one] stands 848 nM. Compound `C[C@@H]1CC[C@@H](Cn2cnc3nc(-c4noc(=O)[nH]4)nc(N[C@H](C)C4CCC4)c32)CC1(F)F` (stereo in doubt) [Example 3.5, 3-(6-{[(1R)-1-cyclobutylethyl]amino}-7-{[(trans)-3,3-difluoro-4-methylcyclohexyl]methyl}-7H-purin-2-yl)-1,2,4-oxadiazol-5(4H)-one] had a half-maximal inhibitory concentration (IC50) of 198 nM. Consider `CCC1CCC(Cn2cnc3nc(-c4noc(=O)[nH]4)nc(N[C@H](C)C4CCC4)c32)C1` (mixture of isomers) [Example 3.10, 3-(6-(((R)-1-cyclobutylethyl)amino)-7-((3-ethylcyclopentyl)methyl)-7H-purin-2-yl)-1,2,4-oxadiazol-5(4H)-one], for which the IC50 was 313 nM. Turning to `C[C@@H](Nc1nc(-c2noc(=O)[nH]2)nc2ncn(C[C@H]3CC[C@H](C(F)(F)F)CC3)c12)C1CCC1` [Example 3.1, 3-(6-{[(1R)-1-cyclobutylethyl]amino}-7-{[trans-4-(trifluoromethyl)cyclohexyl]methyl}-7H-purin-2-yl)-1,2,4-oxadiazol-5(4H)-one], the IC50 is 116 nM.

Turning to `C=C1CCC(Cn2cnc3nc(-c4noc(=O)[nH]4)nc(N[C@H](C)C4CCC4)c32)CC1` [Example 3.7, 3-(6-{[(1R)-1-cyclobutylethyl]amino}-7-[(4-methylidenecyclohexyl)methyl]-7H-purin-2-yl)-1,2,4-oxadiazol-5(4H)-one], the IC50 came out at 543 nM. Same read-out and setting: under `CCC1CCC(Cn2cnc3nc(C(=O)O)nc(N[C@H](C)C4CCC4)c32)C1` (single isomer, unassigned) [Example 3.12] stands 146 nM. As for `C=C1CCC(Cn2cnc3nc(C(=O)O)nc(N[C@H](C)C4CCC4)c32)CC1` [Example 3.8, 6-{[(1R)-1-cyclobutylethyl]amino}-7-[(4-methylidenecyclohexyl)methyl]-7H-purine-2-carboxylic acid], the half-maximal inhibitory concentration (IC50) stood at 677 nM. For the compound `CCC1CCC(Cn2cnc3nc(C(=O)O)nc(N[C@H](C)C4CCC4)c32)C1` (single isomer, unassigned) [Example 3.11], the IC50 was determined as 677 nM. Same read-out and setting: for `C[C@@H](Nc1nc(-c2noc(=O)[nH]2)nc2ncn(CC3CCC4(CC3)CC4)c12)C1CCC1` [Example 3.3, 3-[6-{[(1R)-1-cyclobutylethyl]amino}-7-(spiro[2.5]oct-6-ylmethyl)-7H-purin-2-yl]-1,2,4-oxadiazol-5(4H)-one] the value was 1430 nM.
